Measured values taken from US5916774A, “D-aminoacylase” (Daicel Chemical Industries, Ltd., priority 1997, dated 1999).
Where two headings read alike, the source gives them in different places.

Assays:
[1] = tested on: D-aminoacylase derived from Amycolatopsis orientalis IFO 12806; experiment: Influences of various metallic salts and reagents on D-aminoacylase activity; type: biochemical
Method: (§1) The enzyme activity was assayed according to TNBS method [Tokuyama, S., Hatano, K. and Takahashi, T., Biosci. Biotech. Biochem. 58, pp24 (1994)]. That is, a sample solution containing amino acid was added to 0.5 ml of the solution (C) (0.1M Na2 B4 O7), and brought up to a volume of 1.0 ml. To this mixture was added […] of 0.11M TNBS solution, and the resulting mixture was quickly mixed. Five min thereafter, absorption at 420 nm was measured.
In Table 5, the term "PCMB" means p-chloromercuribenzoic acid.

[2] = tested on: D-aminoacylase derived from Amycolatopsis orientalis IFO 12806; experiment: Substrate specificity of D-aminoacylase; type: biochemical; details: 20 mM substrate, 3 h; for Action of the enzyme on the substrate: pH 7.5, 30° C.; for Specific activity (%): N-acetyl-D-methionine taken as 100%, 50 mM Tris-HCl pH 7.5, 30° C.
Method: The enzymatic reaction was carried out in a total volume of 1.0 ml of a reaction system containing 20 mM N-acetyl-D-methionine (Sigma), 50 mM Tris-HCl buffer (pH 7.5), 1 mM CoCl2, and 100 μl of the enzyme solution at 30° C. for 60 min. The reaction was terminated by adding 0.5 ml of a TCA reaction terminating solution according to Tsai et al. (containing 0.11M trichloroacetic acid, 0.22M sodium acetate, and 0.33M acetic acid).
as §1
Substrate specificity of this enzyme was compared to, taking substrate specificity for N-acetyl-D-methionine as 100%, N-acetyl-D-valine, N-acetyl-D-phenylalanine, N-acetyl-D-leucine, N-acetyl-D-tryptophan, N-acetyl-D-asparagine, N-acetyl-L-methionine, N-acetyl-D-leucine, and N-acetyl-L-valine. The enzyme activity was assayed in 50 mM Tris-HCl buffer (pH 7.5) containing 100 μl of the enzyme solution and 20 mM of each substrate (total volume of 1.0 ml) at 30° C. for 3 h.

[3] = tested on: Amycolatopsis orientalis IFO 12806; experiment: Induction of D-aminoacylase production by inducers in culture; type: cell-based; details: crude enzyme solution of cells cultured with 0.1% inducer in ISP-2 medium, 30° C., 72 h
Method: This microbial strain was cultured in ISP-2 liquid medium as used in Example 1 supplemented with or without N-acetyl-DL-methionine or DL-valine (Kanto Kagaku) (0.1% each) as the enzyme inducer with shaking at 160 rpm at 30° C. for 72 h.
After the incubation, the culture was centrifuged at 8000 rpm (7000×g) for 20 min with a Hitachi Koki refrigerated centrifuge to collect microbial cells. The cells were washed with 50 mM Tris-HCl buffer (pH 7.5) and then centrifuged again with the same centrifuge to harvest the cells to be used in the following processes. The cells were stored at -20° C.
The stored cells were suspended in 20 ml of 50 mM Tris-HCl (pH 7.5), ultrasonicated at 190 W for 10 min, and centrifuged with a Hitachi Koki refrigerated centrifuge at 14,000 rpm (20,000×g) for 20 min. The supernatant thus obtained was used as the crude enzyme solution.
The enzymatic reaction was performed in a total volume of 1.0 ml of a reaction system containing 20 mM N-acetyl-D-methionine, 50 mM Tris-HCl buffer (pH 7.5), 1 mM CoCl2, and 100 μl of the enzyme solution at 30° C. for 10 min. The reaction was terminated by adding a TCA reaction terminating solution.

[4] = metallic salt 1 mM, no addition = 100
[5] = metallic salt 1 mM, pH 7.5, 30° C., 60 min, no addition 0.25
[6] = metallic salt 10 mM, no addition = 100
[7] = metallic salt 10 mM, pH 7.5, 30° C., 60 min, no addition 0.25
[8] = reagent 1 mM, no addition = 100
[9] = reagent 1 mM, pH 7.5, 30° C., 60 min, no addition 0.22
[10] = reagent 10 mM, no addition = 100
[11] = reagent 10 mM, pH 7.5, 30° C., 60 min, no addition 0.22

SMILES: [Cl][Cu][Cl] [Cu^2+ (CuCl2), CuCl2]
- Effect on enzyme activity ([1]; concentration not given): inhibited
- Specific activity (%), concentration 1 mM [1, 4]: 0%
- Methionine produced, concentration 1 mM [1, 5]: 0 mM
- Specific activity (%), concentration 10 mM [1, 6]: 0%
- Methionine produced, concentration 10 mM [1, 7]: 0 mM

SMILES: [Ba+2].[Cl-].[Cl-] [Ba^2+ (BaCl2), BaCl2]
- Methionine produced, concentration 1 mM [1, 5]: 0.19 mM
- Specific activity (%), concentration 10 mM [1, 6]: 176%
- Methionine produced, concentration 10 mM [1, 7]: 0.44 mM

SMILES: O=C(O)c1cc[c]([Hg][Cl])cc1 [PCMB, p-chloromercuribenzoic acid, reference compound]
- Effect on enzyme activity ([1]; concentration not given): inhibited
- Specific activity (%), concentration 1 mM [1, 8]: 0%
- Methionine produced, concentration 1 mM [1, 9]: 0 mM
- Specific activity (%), concentration 10 mM [1, 10]: 0%
- Methionine produced, concentration 10 mM [1, 11]: 0 mM

SMILES: CC(=O)N[C@H](Cc1c[nH]c2ccccc12)C(=O)O [N-acetyl-D-tryptophan]
- Action of the enzyme on the substrate [2]: acted somewhat
- Specific activity (%) [2]: 54%

SMILES: [Cl][Fe][Cl] [F^e2+ (FeCl2), FeCl2]
- Specific activity (%), concentration 1 mM [1, 4]: 52%
- Methionine produced, concentration 1 mM [1, 5]: 0.13 mM
- Specific activity (%), concentration 10 mM [1, 6]: 0%
- Methionine produced, concentration 10 mM [1, 7]: 0 mM

SMILES: CSCCC(NC(C)=O)C(=O)O (racemic) [N-acetyl-DL-methionine]
- Specific activity [3]: 36.0 mU/mg
- Total activity [3]: 5.1 U
- Activity ([3]; 20 mM N-acetyl-D-methionine, pH 7.5, 10 min): 1.6 U/ml

SMILES: [Cl][Hg][Cl] [Hg^2+ (HgCl2), HgCl2]
- Effect on enzyme activity ([1]; concentration not given): inhibited
- Specific activity (%), concentration 1 mM [1, 4]: 0%
- Methionine produced, concentration 1 mM [1, 5]: 0 mM
- Specific activity (%), concentration 10 mM [1, 6]: 0%
- Methionine produced, concentration 10 mM [1, 7]: 0 mM

SMILES: O=C(O)CI [iodoactate, iodoacetate, reference compound]
- Effect on enzyme activity [1]: inhibited
- Specific activity (%), concentration 1 mM [1]: 64%
- Specific activity (%), concentration 10 mM [1]: 50%
- Methionine produced, concentration 1 mM ([1]; pH 7.5): 0.14 mM
- Methionine produced, concentration 10 mM ([1]; pH 7.5): 0.11 mM

SMILES: CC(=O)N[C@@H](C(=O)O)C(C)C [N-acetyl-D-valine]
- Specific activity (%) [2]: 33%

SMILES: CSCC[C@H](NC(C)=O)C(=O)O [N-acetyl-L-methionine]
- Action of the enzyme on the substrate [2]: did not act
- Specific activity (%) [2]: 0%

SMILES: [Ca+2].[Cl-].[Cl-] [Ca^2+ (CaCl2), CaCl2]
- Effect on enzyme activity ([1]; 1 mM): significantly promoted
- Effect on enzyme activity ([1]; 10 mM): did not inhibit
- Specific activity (%), concentration 1 mM [1, 4]: 180%
- Methionine produced, concentration 1 mM [1, 5]: 0.45 mM
- Specific activity (%), concentration 10 mM [1, 6]: 208%
- Methionine produced, concentration 10 mM [1, 7]: 0.52 mM

SMILES: [Cl][Ni][Cl] [Ni^2+ (NiCl2), NiCl2]
- Specific activity (%), concentration 1 mM [1, 4]: 48%
- Methionine produced, concentration 1 mM [1, 5]: 0.12 mM
- Specific activity (%), concentration 10 mM [1, 6]: 68%
- Methionine produced, concentration 10 mM [1, 7]: 0.17 mM

SMILES: [Cl-].[Cl-].[Zn+2] [Zn^2+ (ZnCl2), ZnCl2]
- Specific activity (%), concentration 1 mM [1, 4]: 0%
- Methionine produced, concentration 1 mM [1, 5]: 0 mM
- Specific activity (%), concentration 10 mM [1, 6]: 0%
- Methionine produced, concentration 10 mM [1, 7]: 0 mM

SMILES: [Cl-].[K+] [K^+ (KCl), KCl]
- Specific activity (%), concentration 1 mM [1, 4]: 52%
- Methionine produced, concentration 1 mM [1, 5]: 0.13 mM
- Specific activity (%), concentration 10 mM [1, 6]: 84%
- Methionine produced, concentration 10 mM [1, 7]: 0.21 mM

SMILES: CC(=O)N[C@H](CC(C)C)C(=O)O [N-acetyl-D-leucine]
- Action of the enzyme on the substrate [2]: acted well
- Specific activity (%) [2]: 78%

SMILES: CSCC[C@@H](NC(C)=O)C(=O)O [N-acetyl-D-methionine]
- Action of the enzyme on the substrate [2]: acted well
- Specific activity (%) [2]: 100%

SMILES: CCN1C(=O)C=CC1=O [N-ethyl-maleimide, reference compound]
- Specific activity (%), concentration 1 mM [1, 8]: 45%
- Methionine produced, concentration 1 mM [1, 9]: 0.1 mM
- Specific activity (%), concentration 10 mM [1, 10]: 0%
- Methionine produced, concentration 10 mM [1, 11]: 0 mM

SMILES: [Cl-].[Na+] [Na^+ (NaCl), NaCl]
- Specific activity (%), concentration 1 mM [1]: 84%
- Specific activity (%), concentration 10 mM [1]: 152%
- Methionine produced, concentration 1 mM ([1]; pH 7.5): 0.21 mM
- Methionine produced, concentration 10 mM ([1]; pH 7.5): 0.36 mM

SMILES: [Cl][Mn][Cl] [Mn^2+ (MnCl2), MnCl2]
- Specific activity (%), concentration 1 mM [1, 4]: 96%
- Methionine produced, concentration 1 mM [1, 5]: 0.24 mM
- Specific activity (%), concentration 10 mM [1, 6]: 0%
- Methionine produced, concentration 10 mM [1, 7]: 0 mM

SMILES: CC(=O)N[C@H](C)C(=O)O [N-acetyl-D-alanine]
- Action of the enzyme on the substrate [2]: acted somewhat
- Specific activity (%) [2]: 16%

SMILES: CC(=O)N[C@H](C(=O)O)C(C)C [N-acetyl-L-valine]
- Action of the enzyme on the substrate [2]: did not act
- Specific activity (%) [2]: 0%

SMILES: [Cl-].[Cl-].[Mg+2] [Mg^2+ (MgCl2), MgCl2]
- Specific activity (%), concentration 1 mM [1, 4]: 128%
- Methionine produced, concentration 1 mM [1, 5]: 0.32 mM
- Specific activity (%), concentration 10 mM [1, 6]: 92%
- Methionine produced, concentration 10 mM [1, 7]: 0.32 mM

SMILES: CC(=O)N[C@H](Cc1ccccc1)C(=O)O [N-acetyl-D-phenylalanine]
- Action of the enzyme on the substrate [2]: acted somewhat
- Specific activity (%) [2]: 36%

SMILES: OC(CS)C(O)CS (centres unmarked) [dothiothreito, reference compound]
- Specific activity (%), concentration 1 mM [1, 8]: 77%
- Methionine produced, concentration 1 mM [1, 9]: 0.17 mM
- Specific activity (%), concentration 10 mM [1, 10]: 68%
- Methionine produced, concentration 10 mM [1, 11]: 0.15 mM

SMILES: CC(=O)N[C@H](CC(N)=O)C(=O)O [N-acetyl-D-asparagine]
- Action of the enzyme on the substrate [2]: acted somewhat
- Specific activity (%) [2]: 19%

SMILES: [Cl-].[Cl-].[Co+2] [Co^2+ (CoCl2), CoCl2]
- Effect on enzyme activity ([1]; 1 mM): significantly promoted
- Effect on enzyme activity ([1]; 10 mM): did not do so
- Specific activity (%), concentration 1 mM [1, 4]: 208%
- Methionine produced, concentration 1 mM [1, 5]: 0.52 mM
- Specific activity (%), concentration 10 mM [1, 6]: 108%
- Methionine produced, concentration 10 mM [1, 7]: 0.27 mM

SMILES: CC(=O)N[C@@H](CC(C)C)C(=O)O [N-acetyl-L-leucine]
- Action of the enzyme on the substrate [2]: did not act
- Specific activity (%) [2]: 0%

SMILES: O=C(O)CN(CCN(CC(=O)O)CC(=O)O)CC(=O)O [EDTA.2Na, reference compound]
- Effect on enzyme activity [1]: inhibited
- Specific activity (%), concentration 1 mM [1]: 0%
- Specific activity (%), concentration 10 mM [1]: 0%
- Methionine produced, concentration 1 mM ([1]; pH 7.5): 0 mM
- Methionine produced, concentration 10 mM ([1]; pH 7.5): 0 mM
